Data as given in a melting point compilation (Tetko et al.; mined from patent text by program, amines drawn as free bases though some values may be those of a salt).

Compared with CCCc1ccc(S(=O)(=O)Nc2ccc3nc(C)cnc3c2)cc1, CCc1ccc(S(=O)(=O)NCc2ccccc2-c2ccccc2C(=O)NCCc2ccccc2)cc1 is higher in melting point: 136 °C for the first, 163 °C for the second.

Compared with CCSc1cc(C)nc(SCC)c1NC(=O)CCCCCCCCSc1nc2ccccc2o1, CN(C)CCCCCCCOc1ccc2oc(-c3ccccc3)cc(=O)c2c1 is higher in melting point: 84 to 87 °C for the first, 90 to 91 °C for the second.

First: CN(C)c1nn(-c2cc(F)c(C#N)cc2F)c(=O)n1N
Second: N[C@@H]1C[C@H]2CC[C@@H]1N(c1cc3c(cc1F)c(=O)c(C(=O)O)cn3C1CC1)C2
The melting point of the first is lower: 154 to 155 °C for the first, 267 to 270 °C for the second.

First: O=C1C(Cl)=C(Cl)C(=O)c2ncccc21
Second: O=C1CC2(C(=O)N1)C(=O)N1CCCc3cccc2c31 (stereo not drawn)
The melting point of the first is lower: 221 to 222 °C for the first, 253 to 255 °C for the second.

First: COc1ccc2c(c1)C(c1ccc(N)cc1)=NN(C(C)=O)C(C)C2 (stereo not drawn)
Second: COc1cc(N)ccc1S(=O)(=O)Nc1ccccc1C
The melting point of the first is higher: 237 to 238 °C for the first, 189 to 191 °C for the second.

First: Cc1nc(NCc2ccccn2)c2c(-c3ccccc3)csc2n1
Second: NC(=O)c1c2ccsc2nc2c1c1ccccc1n2Cc1ccccc1
The melting point of the first is lower: 110 to 112 °C for the first, 242 to 245 °C for the second.

CCN(c1cccc(Cl)c1)C(C(=O)O)c1c(Cl)cccc1Cl (stereo not drawn) and CC(=O)c1ccc(OCCOc2ccc3ccccc3c2)cc1Cl cannot be ordered by melting point: 120 °C for the first, 119 to 120 °C for the second.

Compared with CCc1cc(C(C)=O)c(O)cc1OCCCCCCc1nnn[nH]1, CCOC(=O)n1nc(-c2cc(C(C)(C)C)c(O)c(C(C)(C)C)c2)c2cccnc21 is higher in melting point: 126 to 127 °C for the first, 161 to 163 °C for the second.

First: O=C(OCc1ccccc1)N1CCC(NCC(O)Cn2ccnc2[N+](=O)[O-])C(O)C1 (stereo not drawn)
Second: COc1ccc(CC(O)c2ccccn2)cc1 (stereo not drawn)
The melting point of the first is higher: 140 to 142 °C for the first, 110 to 112 °C for the second.

First: CC(F)(F)c1cccc(C[C@H]2NC(=O)O[C@H]2c2ccc(F)cc2)c1 (racemic)
Second: FC(F)c1cc(-c2cccc(C(F)(F)F)c2)nc2ccnn12
The melting point of the first is higher: 143 to 144 °C for the first, 127 °C for the second.

First: CCCc1nc(C(=O)OC)c(C(=O)OC)n1Cc1ccc(-c2ccccc2-c2nnnn2C(c2ccccc2)(c2ccccc2)c2ccccc2)cc1
Second: O=C1NC(SCC#CCc2ccccc2)C1NC(c1ccccc1)(c1ccccc1)c1ccccc1 (stereo not drawn)
The melting point of the first is lower: 124 to 126 °C for the first, 145 to 146 °C for the second.

First: CCOC(=O)c1c(CN(CC)CC)nc2sc3c(c2c1-c1ccc(OC)c(OC)c1)CCNC3
Second: COCOc1c(OC)cc(C=O)c2cccc(C)c12
The melting point of the first is higher: 72 to 75 °C for the first, 48 to 50 °C for the second.

First: CCc1cnc(N=Cc2cnc([N+](=O)[O-])n2C)n1CCO
Second: CN1C(C)(C)CN(CCO)C(=O)C1(C)C
The melting point of the first is higher: 185 to 187 °C for the first, 77 to 80 °C for the second.

Compared with COc1ccc(OC)c(C2(OC)C(=O)Nc3ccc(Cl)cc32)c1 (stereo not drawn), CC(C)(C)CCN1C(=O)C(N)C(=O)N(c2ccccc2F)c2ccccc21 (stereo not drawn) is lower in melting point: 180 °C for the first, 98 to 100 °C for the second.

First: O=C1NCC(COc2ccccc2)O1 (stereo not drawn)
Second: CC(C)(C)C(=O)Nc1ccccc1CC1NCCc2ccccc21 (stereo not drawn)
The melting point of the first is lower: 108 to 109 °C for the first, 168 °C for the second.

First: c1cc2c(cc1-c1nnc(SCC3CC3)o1)CCO2
Second: O=C(Nc1cccnc1)N1CCN(c2ccnc(-c3cccc(F)c3F)n2)CC1
The melting point of the first is lower: 57 to 58 °C for the first, 208 to 209 °C for the second.

First: Cc1cccc(NC(=O)NCC(=O)N(c2ccccc2)C(C(=O)OC(C)(C)C)c2cccc(Br)c2)c1 (racemic)
Second: Cc1nc2c(OCc3c(Cl)ccc(N(C)C(=O)CN4C(=O)c5ccccc5C4=O)c3Cl)cccc2n1C
The melting point of the first is lower: 103 °C for the first, 226 to 227 °C for the second.

Compared with FC(F)(F)c1cccc(-c2cc(C(F)(F)F)n3nccc3n2)c1, COC(=O)C(Cc1cc(Br)c(O)c(Br)c1)NC(=O)C(F)(F)F (stereo not drawn) is higher in melting point: 96 °C for the first, 136 to 137 °C for the second.

First: Cc1cccc2c1NC(=O)C(CCCN1CCN(c3ccccc3F)CC1)S2 (stereo not drawn)
Second: CCN(CC)C(=O)c1ccccc1C1CC1c1ccccc1 (stereo not drawn)
The melting point of the first is higher: 121 to 123 °C for the first, 52 to 53 °C for the second.
